The text below walks through data of patent publication US20230150951A1, “2,5- OR 2,6-DISUBSTITUTED HYDROQUINONE DERIVATIVES WITH AT LEAST ONE CARBOXY, SULFO OR AMIDO GROUP USEFUL AS MEDICAMENTS” (OM PHARMA SA, priority 2020, published 2023).

Structures are written as SMILES. Read-outs that look alike come from different tables or passages of the source. Some results are limits rather than exact numbers.

Holding throughout (assay type): cell-based
For one assay, the system named is IL-10. Put plainly: Cytokine release after LPS induction on human whole blood: IL-10. On the procedure: (§1) Aim of this in vitro method is to assess compounds effects on release of a panel of cytokines from whole blood following lipopolysaccharide (LPS) induced inflammatory reaction. Whole blood was incubated with compounds for 1 h prior to LPS induction. Cytokine levels in blood were measured using a multiplex FACS-based panel.
(§2) IC50 values determined for the tested compounds expressed in microM [μM] and the values for the inhibition of cytokines were listed for each compound.
(§3) Effect on cytokines release after LPS induction was performed on the compounds dissolved in DMSO or H2O to reach 10-fold concentrated stock solutions and dissolved in culture media.
(§4) Test system: Whole blood was removed from a single donor (into lithium heparin coated tubes; BD Vacutainer; 367886) and diluted 1:5 with RPMI 1640 (Thermo Fisher, 61870036). Within 30 minutes of sampling, blood was incubated with compounds for 1 h prior to LPS stimulation (O111:B4—Sigma L4391; 10 ng/ml final concentration). Stimulation continued under standard cell culture conditions (37° C. with 5% CO2) overnight (18 h), after which plates were centrifuged and supernatant removed and frozen at −80° C. until used for analyses.
(§5) Dilution of test compounds: 10×concentrated solutions (concerning to the final assay concentrations) of each test compound were prepared with the appropriate solvent (in DMSO or in water). These 10× compound solutions (10 μl) were then added to 90 μl pre-diluted whole blood (whole blood: RPMI1640, 1:5) resulting in the final assay concentration.
(§6) Test method: Diluted whole blood (80 μl) was pre-incubated with compounds (10 μl) to give final assay concentrations of 100, 30, 10, 3, 1, 0.3 and 0.1×10^−6M. Blood was incubated at 37° C. with 5% CO2 for 1 h. LPS was diluted in cell culture media to a concentration of […]; 10 μl was added to the whole blood to give a final concentration of 10 ng/ml. Plates were incubated at 37° C. for 18 h. Plates were centrifuged at 3,000 RPM for 5 minutes at 4° C. and supernatant removed and frozen at −80° C. until FACS analysis was carried out.
(§7) Cytokine release was measured using a custom multiplex system (ELISA Genie) according to manufacturers instructions. Prepared samples were run on an Attune NxT flow cytometer (Thermo Fisher).
(§8) Quantification of cytokine release inhibition: known concentration standards were run as part of the cytokine panel to allow quantification of each cytokine concentration in each sample. This was carried out using FCAP Array v3.0 software.
(§9) Results: The dose response relationship on cytokine release following LPS induction of inflammatory response in whole blood was assessed for all compounds. IC50 values were determined for each compound for a panel of cytokines (GM-CSF, IFN-gamma, IL-1beta, IL-2, IL-4, IL-5, IL-6, IL-8, IL-9, IL-10, IL-12p40, IL-13, IL-17A, IL-17F, IL-18, IL-21, IL-22, IL-33, TGF-beta, TNF-alpha, TNF-beta).

The next assay has as its system IL-6. Nature of the assay: Cytokine release after LPS induction on human whole blood: IL-6. As to the method:
as §1, §2, §3, §4, §5, §6, §7, §8, §9

A further assay concerns TGF-beta. Put plainly: Cytokine release after LPS induction on human whole blood: TGFβ. As to the method:
as §1, §2, §3, §4, §5, §6, §7, §8, §9

Setting [1] is: Homo sapiens, LPS 10 ng/ml, 18 h, read-out: Whole Blood: IL-10 IC50.
[2] abbreviates: human whole blood, inhibition of LPS induced inflammation, read-out: IC50 IL-10.
Where [3] appears, read: Homo sapiens, LPS 10 ng/ml, 18 h, read-out: Whole Blood: IL-6 IC50.
Where [4] appears, read: human whole blood, inhibition of LPS induced inflammation, read-out: IC50 IL-6.
The mark [5] stands for this setting: Homo sapiens, LPS 10 ng/ml, 18 h, read-out: Whole Blood: TGFβ IC50.
Setting [6] is: human whole blood, inhibition of LPS induced inflammation, read-out: IC50 TGFbeta.

Usually IC50 stands for the concentration that inhibits the measured activity by half. Regarding `O=C(O)c1cc(NC(=O)c2cc(O)c(C(=O)O)cc2O)cc(C(=O)O)c1` [Ia-015a, 5-(4-carboxy-2,5-dihydroxybenzamido)isophthalic acid], the half-inhibitory concentration (IC50) in the assay on IL-10 (setting [1]) is 5.27 µM; in the assay with IL-10 (setting [2]), 5.27 µM; with IL-6 (setting [3]), 0.77 µM; with IL-6 (setting [4]) it was 0.77 µM; in the assay on TGF-beta (setting [5]), over 100 µM; in the assay with TGF-beta (setting [6]), 100 µM.
Consider `CCOC(=O)c1cc(NC(=O)c2cc(O)c(C(=O)OCC)cc2O)cc(NC(=O)c2cc(O)c(C(=O)OCC)cc2O)c1` [Ib-010a-E3, ethyl 3,5-bis(2,5-dihydroxy-4-ethoxycarbonylbenzoylamino)benzoate], for which the half-inhibitory concentration (IC50) with IL-10 (setting [1]) was over 100 µM; in the assay with IL-10 (setting [2]) it was 100 µM; in the assay with IL-6 (setting [3]) it was 0.24 µM; in the assay with IL-6 (setting [4]) it was 0.24 µM; in the assay on TGF-beta (setting [5]), over 100 µM; in the assay on TGF-beta (setting [6]) it was 100 µM.
